Data: ChEMBL document CHEMBL3244164, “Synthesis and analgesic activity of 1,3-dihydro-3-(substituted phenyl)imidazo[4,5-b]pyridin-2-ones and 3-(substituted phenyl)-1,2,3-triazolo[4,5-b]pyridines” (J Med Chem, 1978)

Columns and labels:
Assay type in all cases: functional
[1] = test system: Rattus norvegicus; assay: Analgesic activity in Sprague-Dawley rat brewer's yeast treated foot assessed as response threshold at 16 to 32 mg/kg, po; conditions: dose mg/kg 16-32
[2] = test system: Rattus norvegicus; assay: Analgesic activity in Sprague-Dawley rat normal foot assessed as response threshold at 32 mg/kg, po
[3] = test system: Rattus norvegicus; assay: Analgesic activity in Sprague-Dawley rat brewer's yeast treated foot assessed as response threshold at 8 to 16 mg/kg, po; conditions: dose mg/kg 8-16
[4] = test system: Rattus norvegicus; assay: Analgesic activity in Sprague-Dawley rat normal foot assessed as response threshold at 16 to 32 mg/kg, po; conditions: dose mg/kg 16-32
[5] = test system: Rattus norvegicus; assay: Analgesic activity in Sprague-Dawley rat brewer's yeast treated foot assessed as response threshold at 32 mg/kg, po

SMILES	Activity [1]	Activity [2]	Activity [3]	Activity [4]	Activity [5]
c1cnc2c(c1)nnn2-c1ccc2c(c1)OCCO2	>25 mm	<40 mm	–	–	–
O=c1[nH]c2cccnc2n1-c1ccccc1	–	40 mm	>25 mm	–	–
CCCn1c(=O)n(-c2ccccc2)c2ncccc21	>25 mm	40 mm	–	–	–
Cc1ccc(-n2c(=O)[nH]c3cccnc32)c(C)c1	>25 mm	<40 mm	–	–	–
CCn1c(=O)n(-c2ccc3c(c2)OCO3)c2ncccc21	>25 mm	<40 mm	–	–	–
Fc1ccc(-n2nnc3cccnc32)c(F)c1	–	–	>25 mm	>40 mm	–
O=c1n(CC2CC2)c2cccnc2n1-c1ccc2c(c1)OCO2	>25 mm	–	–	>40 mm	–
O=c1n(CO)c2cccnc2n1-c1ccc2c(c1)OCO2	>25 mm	40 mm	–	–	–
CC(C)(C)n1c(=O)n(-c2ccc3c(c2)OCO3)c2ncccc21	>25 mm	–	–	>40 mm	–
Fc1ccccc1-n1nnc2cccnc21	–	<40 mm	>25 mm	–	–
Cc1cccc(-n2nnc3cccnc32)n1	–	<40 mm	–	–	<25 mm
CC(=O)Nc1ccc(-n2nnc3cccnc32)cc1	–	<40 mm	–	–	<25 mm
O=c1[nH]c2cncnc2n1-c1ccccc1F	–	<40 mm	–	–	<25 mm
O=c1n(-c2ccc3c(c2)OCO3)c2ncccc2n1C1CCCC1	–	–	>25 mm	>40 mm	–
O=c1n(CCO)c2cccnc2n1-c1ccc2c(c1)OCO2	–	–	>25 mm	>40 mm	–
c1cnc2c(c1)nnn2-c1ccc2c(c1)OCO2	–	40 mm	–	–	25 mm
c1ccc(-n2nnc3cccnc32)cc1	–	<40 mm	–	–	<25 mm
COc1cccc(-n2c(=O)[nH]c3cccnc32)c1	–	<40 mm	–	–	<25 mm
C=CCn1c(=O)n(-c2ccc3c(c2)COCO3)c2ncccc21	–	<40 mm	–	–	<25 mm
CCC(C)n1c(=O)n(-c2ccc3c(c2)OCO3)c2ncccc21 (stereo not given)	–	<40 mm	–	–	<25 mm
CC(C)c1ccccc1-n1nnc2cccnc21	–	<40 mm	–	–	25 mm
CC(C)Cc1ccc(-n2c(=O)[nH]c3cccnc32)cc1	–	<40 mm	–	–	<25 mm

SMILES	Activity [1]	Activity [2]	Activity [3]	Activity [4]	Activity [5]
c1cnc2c(c1)nnn2-c1ccncc1	–	<40 mm	–	–	<25 mm
O=c1n(CC2CO2)c2cccnc2n1-c1ccc2c(c1)OCO2 (stereo not given)	–	<40 mm	–	–	<25 mm
COC(=O)c1cnc2c(c1)nnn2-c1ccccc1F	–	<40 mm	–	–	<25 mm
CC(=O)n1c(=O)n(-c2ccc3c(c2)OCO3)c2ncccc21	–	40 mm	–	–	25 mm
COC(=O)c1cnc2c(c1)[nH]c(=O)n2-c1ccc2c(c1)OCO2	–	<40 mm	–	–	<25 mm
C=CCSc1nc2cccnc2n1-c1ccc2c(c1)OCO2	–	<40 mm	–	–	<25 mm
Cc1c(Cl)cccc1-n1c(=O)[nH]c2cccnc21	–	<40 mm	–	–	<25 mm
COc1ccc2c3c1O[C@H]1[C@@H](O)C=C[C@H]4[C@@H](C2)N(C)CC[C@@]341 [CODEINE]	–	–	>25 mm	>40 mm	–
O=c1[nH]c2cccnc2n1CCc1ccccc1	–	<40 mm	–	–	<25 mm
COc1cc(-n2c(=O)[nH]c3cccnc32)cc(OC)c1OC	–	<40 mm	–	–	<25 mm
O=c1[nH]c2cccnc2n1-c1ccccc1F	–	<40 mm	–	–	25 mm
O=c1[nH]c2cccnc2n1-c1ccc2c(c1)COCO2	–	<40 mm	–	–	<25 mm
O=c1[nH]c2cccnc2n1-c1cccc(Oc2ccccc2)c1	–	<40 mm	–	–	<25 mm
C=CCn1c(=O)n(-c2cccc(Cl)c2C)c2ncccc21	–	<40 mm	–	–	<25 mm
C=C=Cn1c(=O)n(-c2ccc3c(c2)OCO3)c2ncccc21	–	<40 mm	–	–	<25 mm
O=c1[nH]c2cccnc2n1Cc1ccc2c(c1)OCO2	–	<40 mm	–	–	<25 mm
COc1ccc(OC)c(-n2c(=O)[nH]c3cccnc32)c1	–	<40 mm	–	–	<25 mm
CC(C)(C)Oc1nc2cccnc2n1-c1ccc2c(c1)OCO2	–	<40 mm	>25 mm	–	–
C=CCn1c(=O)n(-c2ccc3c(c2)CCC3)c2ncccc21	–	<40 mm	–	–	<25 mm
COc1cc(-n2nnc3cccnc32)cc(OC)c1OC	–	<40 mm	–	–	<25 mm
CC(=O)Oc1ccccc1C(=O)O [ASPIRIN]	–	<40 mm	–	–	25 mm
O=c1[nH]c2cccnc2n1-c1ccccc1Cl	>25 mm	<40 mm	–	–	–

SMILES	Activity [1]	Activity [2]	Activity [3]	Activity [4]	Activity [5]
O=c1[nH]c2cccnc2n1-c1ccc(F)cc1	–	40 mm	–	–	25 mm
O=c1[nH]c2cccnc2n1-c1cccc2c1OCO2	–	<40 mm	–	–	<25 mm
CC(C)Cn1c(=O)n(-c2ccc3c(c2)OCO3)c2ncccc21	>25 mm	<40 mm	–	–	–
O=c1[nH]c2cccnc2n1-c1ccc(F)cc1F	–	<40 mm	–	–	25 mm
CCOC(=O)c1cccc(-n2nnc3cccnc32)c1	–	<40 mm	–	–	<25 mm
CCCCCCn1c(=O)n(-c2ccc3c(c2)OCO3)c2ncccc21	–	<40 mm	–	–	25 mm
COC(=O)c1cnc2c(c1)[nH]c(=O)n2-c1ccccc1F	–	<40 mm	–	–	<25 mm
O=c1[nH]c2cccnc2n1-c1cc(F)ccc1F	–	<40 mm	–	–	<25 mm
O=c1[nH]c2cccnc2n1-c1cccc(C(F)(F)F)c1	–	<40 mm	–	–	<25 mm
CN(C)c1ccc(-n2nnc3cccnc32)cc1	–	<40 mm	–	–	<25 mm
COc1ccc(-n2c(=O)[nH]c3cccnc32)cc1OC	–	<40 mm	–	–	<25 mm
C=CCn1c(=O)n(-c2ccccc2F)c2ncncc21	–	<40 mm	–	–	<25 mm
C=CCn1c(=O)n(-c2cccc(C(=O)OCC)c2)c2ncccc21	–	<40 mm	–	–	<25 mm
O=c1n(CCC2CCCCC2)c2cccnc2n1-c1ccc2c(c1)OCO2	–	<40 mm	–	–	<25 mm
O=c1n(C/C=C/c2ccccc2)c2cccnc2n1-c1ccc2c(c1)OCO2	–	<40 mm	–	–	<25 mm
Fc1ccccc1Cn1nnc2cccnc21	–	<40 mm	–	–	<25 mm
Fc1ccc(F)c(-n2nnc3cccnc32)c1	>25 mm	<40 mm	–	–	–
c1cnc2c(c1)nnn2-c1ccc2c(c1)COC2	–	<40 mm	–	–	<25 mm
O=C(O)c1cnc2c(c1)[nH]c(=O)n2-c1ccc2c(c1)OCO2	–	<40 mm	–	–	<25 mm
C=CCn1c(=O)n(-c2cccc(C)n2)c2ncccc21	–	<40 mm	–	–	<25 mm
Clc1ccc(-n2nnc3cccnc32)cc1Cl	–	<40 mm	–	–	<25 mm
O=c1[nH]c2cccnc2n1-c1ccc2c(c1)CCC2	–	<40 mm	–	–	<25 mm

SMILES	Activity [1]	Activity [2]	Activity [3]	Activity [4]	Activity [5]
CC(=O)OCCn1c(=O)n(-c2ccc3c(c2)OCO3)c2ncccc21	–	<40 mm	–	–	25 mm
c1cnc2c(c1)nnn2Cc1ccc2c(c1)OCO2	–	<40 mm	–	–	<25 mm
O=c1[nH]c2cccnc2n1-c1cc2c(cc1[N+](=O)[O-])OCO2	–	<40 mm	–	–	<25 mm
O=c1[nH]c2cccnc2n1-c1ccc2c(c1)OCCO2	–	<40 mm	–	–	<25 mm
Cc1ccc(-n2c(=O)[nH]c3cccnc32)cc1	>25 mm	–	–	>40 mm	–
O=c1[nH]c2cccnc2n1-c1ccc(Cl)c(Cl)c1	–	<40 mm	–	–	<25 mm
O=c1n(CCc2ccccc2)c2cccnc2n1-c1ccc2c(c1)OCO2	–	<40 mm	–	–	<25 mm
CC(O)Cn1c(=O)n(-c2ccc3c(c2)OCO3)c2ncccc21 (stereo not given)	>25 mm	40 mm	–	–	–
O=c1[nH]c2cccnc2n1-c1ccccc1Br	–	<40 mm	–	–	25 mm
CCOC(=O)n1c(=O)n(-c2ccc3c(c2)OCO3)c2ncccc21	–	<40 mm	–	–	<25 mm
Clc1ccc(-n2nnc3cccnc32)c(Cl)c1	–	40 mm	–	–	<25 mm
Cc1oc2ccc(-n3nnc4cccnc43)cc2c1C	–	<40 mm	–	–	<25 mm
c1cnc2c(c1)nnn2-c1ccc2c(c1)CCC2	–	<40 mm	–	–	<25 mm
CN(C)c1ccccc1-n1c(=O)[nH]c2cccnc21	–	<40 mm	–	–	<25 mm
Nc1ccc(-n2c(=O)[nH]c3cccnc32)cc1	>25 mm	<40 mm	–	–	–
C=C(Cl)Cn1c(=O)n(-c2ccc3c(c2)OCO3)c2ncccc21	>25 mm	–	–	>40 mm	–
CSCn1c(=O)n(-c2ccccc2)c2ncccc21	–	<40 mm	–	–	25 mm
Cc1oc2ccc(-n3c(=O)[nH]c4cccnc43)cc2c1C	–	<40 mm	–	–	<25 mm
CN(C)CCCn1c(=O)n(-c2ccc3c(c2)OCO3)c2ncccc21	–	<40 mm	–	–	<25 mm
